According to PubChem BioAssay (NCI):
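Protocol summary: plate cells (96-well), add compound at 5 concentrations, incubate 48 h, interpolate endpoints linearly. At the GI50, growth is halved. At the TGI there is no net growth.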

How the values were obtained:
Assay in all cases: inhibition of tumour cell growth, NCI panel, 48 h
UACC-62 melanoma = tested on: UACC-62 melanoma
T-47D breast = tested on: T-47D breast
SNB-19 CNS = tested on: SNB-19 CNS
SN12C renal = tested on: SN12C renal
A549 NSCLC = tested on: A549 NSCLC
MDA-MB-435 = tested on: MDA-MB-435
NCI/ADR-RES ovarian = tested on: NCI/ADR-RES ovarian
HS 578T breast = tested on: HS 578T breast
SR leukemia = tested on: SR leukemia
HCC-2998 colon = tested on: HCC-2998 colon

CCC(=O)Nc1ccc(NC(C#N)c2cccc(Oc3ccccc3)c2)cc1 (configuration not stated)
TGI (UACC-62 melanoma): > 100 µM
TGI (T-47D breast): > 100 µM
TGI (SNB-19 CNS): > 100 µM
TGI (SN12C renal): > 100 µM
TGI (A549 NSCLC): > 100 µM
TGI (MDA-MB-435): > 100 µM
TGI (NCI/ADR-RES ovarian): > 100 µM
TGI (HS 578T breast): > 100 µM
TGI (SR leukemia): 55 µM

O=c1[nH]nc(Cc2c[nH]c3ccccc23)o1
TGI (HCC-2998 colon): > 100 µM
TGI (UACC-62 melanoma): > 100 µM
TGI (T-47D breast): > 100 µM
TGI (SNB-19 CNS): > 100 µM
TGI (SN12C renal): > 100 µM
TGI (A549 NSCLC): > 100 µM
TGI (MDA-MB-435): > 100 µM
TGI (NCI/ADR-RES ovarian): > 100 µM
TGI (HS 578T breast): > 100 µM

O=C(c1ccccc1)c1ccc2[nH]c(-c3c(Cl)c(Cl)c(Cl)c(Cl)c3C(=O)N/N=C/c3cccc(Oc4ccccc4)c3)nc2c1
TGI (T-47D breast): > 100 µM
TGI (SNB-19 CNS): > 100 µM
TGI (SN12C renal): > 100 µM
TGI (A549 NSCLC): > 100 µM
TGI (MDA-MB-435): > 100 µM
TGI (NCI/ADR-RES ovarian): > 100 µM
TGI (HS 578T breast): > 100 µM
TGI (SR leukemia): > 100 µM

COc1cc(/C=N/n2c(-c3ccccc3)nn(C(C)=O)c2=O)cc(OC)c1OC
TGI (HCC-2998 colon): 16.3 µM
TGI (UACC-62 melanoma): 31.4 µM
TGI (T-47D breast): > 100 µM
TGI (SNB-19 CNS): > 52.3 µM
TGI (SN12C renal): > 100 µM
TGI (A549 NSCLC): > 94.6 µM
TGI (MDA-MB-435): 1.96 µM
TGI (NCI/ADR-RES ovarian): > 42.6 µM
TGI (HS 578T breast): > 26.9 µM

N#Cc1c(N2CCC(O)C2)c2ccccc2n2c1nc1ccccc12 (configuration not stated)
TGI (HCC-2998 colon): > 100 µM
TGI (UACC-62 melanoma): > 100 µM
TGI (T-47D breast): > 100 µM
TGI (SNB-19 CNS): > 100 µM
TGI (SN12C renal): > 100 µM
TGI (A549 NSCLC): > 100 µM
TGI (MDA-MB-435): > 100 µM
TGI (NCI/ADR-RES ovarian): > 100 µM
TGI (HS 578T breast): > 100 µM

CC(C)=CCC/C(C)=C/CC/C(C)=C/CC/C(C)=C/CC/C(C)=C/CC/C(C)=C/CC/C(C)=C/CC/C(C)=C/CC/C(C)=C/CO
TGI (HCC-2998 colon): > 100 µM
TGI (UACC-62 melanoma): > 100 µM
TGI (T-47D breast): > 100 µM
TGI (SNB-19 CNS): > 100 µM
TGI (SN12C renal): > 100 µM
TGI (A549 NSCLC): > 100 µM
TGI (MDA-MB-435): > 100 µM
TGI (HS 578T breast): > 100 µM
TGI (SR leukemia): > 100 µM

COc1ccc(CCCNC(=O)c2cc(OC)c(OC)cc2CCO)cc1OC
TGI (HCC-2998 colon): > 100 µM
TGI (UACC-62 melanoma): > 100 µM
TGI (T-47D breast): > 100 µM
TGI (SNB-19 CNS): > 100 µM
TGI (SN12C renal): > 100 µM
TGI (A549 NSCLC): > 100 µM
TGI (MDA-MB-435): > 100 µM
TGI (NCI/ADR-RES ovarian): > 100 µM
TGI (HS 578T breast): > 100 µM
TGI (SR leukemia): > 100 µM

CS(=O)(=O)c1ccc(N=C/C=C/Nc2ccc(S(C)(=O)=O)cc2)cc1
TGI (HCC-2998 colon): > 100 µM
TGI (UACC-62 melanoma): > 100 µM
TGI (T-47D breast): > 100 µM
TGI (SNB-19 CNS): > 100 µM
TGI (SN12C renal): > 100 µM
TGI (A549 NSCLC): > 100 µM
TGI (MDA-MB-435): > 100 µM
TGI (NCI/ADR-RES ovarian): > 100 µM
TGI (HS 578T breast): > 100 µM
TGI (SR leukemia): > 100 µM

COc1ccccc1C1ON=C(c2ccc([N+](=O)[O-])cc2)N1C12CC3CC(CC(C3)C1)C2 (configuration not stated)
TGI (HCC-2998 colon): > 100 µM
TGI (UACC-62 melanoma): > 100 µM
TGI (T-47D breast): > 100 µM
TGI (SNB-19 CNS): > 100 µM
TGI (SN12C renal): > 100 µM
TGI (A549 NSCLC): > 100 µM
TGI (MDA-MB-435): > 100 µM
TGI (NCI/ADR-RES ovarian): > 100 µM
TGI (HS 578T breast): > 100 µM
TGI (SR leukemia): > 100 µM

CC(C)O/N=C/c1cc(NC(=S)OC(C)C)ccc1Cl
TGI (HCC-2998 colon): > 75.3 µM
TGI (UACC-62 melanoma): > 69.3 µM
TGI (T-47D breast): > 100 µM
TGI (SNB-19 CNS): > 72.4 µM
TGI (SN12C renal): > 57.9 µM
TGI (A549 NSCLC): > 90.6 µM
TGI (MDA-MB-435): > 100 µM
TGI (NCI/ADR-RES ovarian): > 84.9 µM
TGI (HS 578T breast): > 79.2 µM
TGI (SR leukemia): 45 µM

Cn1c(=O)c2c(nc3n2CCCC(=O)N3CC(O)CCl)n(C)c1=O (configuration not stated)
TGI (HCC-2998 colon): > 100 µM
TGI (UACC-62 melanoma): > 100 µM
TGI (T-47D breast): > 100 µM
TGI (SNB-19 CNS): > 100 µM
TGI (SN12C renal): > 100 µM
TGI (A549 NSCLC): > 100 µM
TGI (MDA-MB-435): > 100 µM
TGI (NCI/ADR-RES ovarian): > 100 µM
TGI (HS 578T breast): > 100 µM
TGI (SR leukemia): > 100 µM

O=C(Nc1ccc(-n2ccc3c(NC(=O)c4ccccc4)ncnc32)cc1)Nc1ccc(Cl)c(Cl)c1
GI50 (HCC-2998 colon): 5.34 µM
TGI (HCC-2998 colon): 20.7 µM
GI50 (UACC-62 melanoma): 6.34 µM
TGI (UACC-62 melanoma): 13.1 µM
GI50 (T-47D breast): 3.32 µM
TGI (T-47D breast): 11.7 µM
GI50 (SNB-19 CNS): 4.58 µM
TGI (SNB-19 CNS): 12.6 µM
GI50 (SN12C renal): 4.76 µM
TGI (SN12C renal): 12.3 µM
GI50 (A549 NSCLC): 1.95 µM
TGI (A549 NSCLC): 6.64 µM
GI50 (MDA-MB-435): 2.44 µM
TGI (MDA-MB-435): 11.5 µM
GI50 (NCI/ADR-RES ovarian): 10.3 µM
TGI (NCI/ADR-RES ovarian): 50 µM
GI50 (HS 578T breast): 1.19 µM
TGI (HS 578T breast): 5.77 µM
GI50 (SR leukemia): 1.17 µM
TGI (SR leukemia): 2.7 µM

CCOC(=O)C1c2[nH]c3ccccc3c2CCN1C(=O)c1ccc(OC)o1 (configuration not stated)
TGI (HCC-2998 colon): > 10 µM
TGI (T-47D breast): > 10 µM
TGI (SNB-19 CNS): > 10 µM
TGI (SN12C renal): > 10 µM
TGI (MDA-MB-435): > 10 µM
TGI (NCI/ADR-RES ovarian): > 10 µM
TGI (HS 578T breast): > 10 µM
TGI (SR leukemia): > 10 µM

COC(=O)C(Cc1c[nH]c2ccccc12)NC(=O)c1ccc(-c2ccc(Cl)cc2Cl)o1 (configuration not stated)
TGI (HCC-2998 colon): 48.5 µM
TGI (UACC-62 melanoma): > 100 µM
TGI (T-47D breast): > 100 µM
TGI (SNB-19 CNS): > 100 µM
TGI (SN12C renal): > 100 µM
TGI (A549 NSCLC): > 100 µM
TGI (MDA-MB-435): > 100 µM
TGI (NCI/ADR-RES ovarian): > 100 µM
TGI (HS 578T breast): > 100 µM
TGI (SR leukemia): > 100 µM

COc1cc(C2c3cc4c(cc3OC(NNS(=O)(=O)c3ccc(C)cc3)C2C)OCO4)cc(OC)c1O (configuration not stated)
TGI (HCC-2998 colon): > 100 µM
TGI (UACC-62 melanoma): 40.9 µM
TGI (T-47D breast): > 100 µM
TGI (SNB-19 CNS): 56.4 µM
TGI (SN12C renal): > 100 µM
TGI (A549 NSCLC): > 100 µM
TGI (MDA-MB-435): 12.4 µM
TGI (NCI/ADR-RES ovarian): 45.1 µM
TGI (HS 578T breast): 55.3 µM

C/C(CC(O)(/C=N/O)c1ccccc1)=N/O (configuration not stated)
TGI (HCC-2998 colon): > 100 µM
TGI (T-47D breast): > 100 µM
TGI (SNB-19 CNS): > 100 µM
TGI (SN12C renal): > 100 µM
TGI (A549 NSCLC): > 100 µM
TGI (MDA-MB-435): > 100 µM
TGI (NCI/ADR-RES ovarian): > 100 µM
TGI (HS 578T breast): > 100 µM
TGI (SR leukemia): > 100 µM

O=c1c2cc3c(=O)n4c(cc(-c5ccccc5)c5cc(Cl)ccc54)nc3cc2nc2cc(-c3ccccc3)c3cc(Cl)ccc3n12
TGI (HCC-2998 colon): > 100 µM
TGI (UACC-62 melanoma): > 100 µM
TGI (T-47D breast): > 100 µM
TGI (SNB-19 CNS): > 100 µM
TGI (SN12C renal): > 100 µM
TGI (A549 NSCLC): > 100 µM
TGI (MDA-MB-435): > 100 µM
TGI (NCI/ADR-RES ovarian): > 100 µM
TGI (HS 578T breast): > 100 µM
TGI (SR leukemia): > 100 µM

COc1cc(-c2cc(=O)c3c(O)c(CC=C(C)C)c(O)cc3o2)ccc1O
TGI (UACC-62 melanoma): > 50 µM
TGI (T-47D breast): 40.8 µM
TGI (SNB-19 CNS): > 50 µM
TGI (SN12C renal): > 50 µM
TGI (A549 NSCLC): > 50 µM
TGI (MDA-MB-435): 22 µM
TGI (NCI/ADR-RES ovarian): > 50 µM
TGI (HS 578T breast): > 50 µM
TGI (SR leukemia): 41.9 µM

CCOC(=O)C(Cc1ccc(OC(=O)c2ccc(OC)cc2)cc1)NC(=O)C(F)(F)F (configuration not stated)
TGI (HCC-2998 colon): > 100 µM
TGI (UACC-62 melanoma): > 100 µM
TGI (T-47D breast): > 100 µM
TGI (SNB-19 CNS): > 100 µM
TGI (SN12C renal): > 100 µM
TGI (A549 NSCLC): > 100 µM
TGI (MDA-MB-435): > 100 µM
TGI (NCI/ADR-RES ovarian): > 100 µM
TGI (HS 578T breast): > 100 µM

NC(=O)Cc1nc2c(N)ncnc2n1C1OC(CO)C(O)C1O (configuration not stated)
TGI (HCC-2998 colon): > 100 µM
TGI (UACC-62 melanoma): > 100 µM
TGI (T-47D breast): > 100 µM
TGI (SNB-19 CNS): > 100 µM
TGI (SN12C renal): > 100 µM
TGI (A549 NSCLC): > 100 µM
TGI (MDA-MB-435): > 100 µM
TGI (NCI/ADR-RES ovarian): > 100 µM
TGI (HS 578T breast): > 100 µM
TGI (SR leukemia): > 100 µM
